Assay results reported in PMC2810234, “Lyngbyastatins 8–10, Elastase Inhibitors with Cyclic Depsipeptide Scaffolds Isolated from the Marine Cyanobacterium Lyngbya semiplena” (Marine Drugs, 2009).

Biological target: T1, porcine pancreatic elastase (Sus scrofa, UniProt P00772)
T1 construct: purchased EPC (Elastin Products Company) EC134
Test: Inhibition of porcine pancreatic elastase
Assay type: biochemical
Conditions: elastase stock 75 μg/mL (5 μL), Tris-HCl pH 8.0; compound 1 μL in DMSO; preincubated 15 min at room temperature; substrate 2 mM N-succinyl-Ala-Ala-Ala-p-nitroanilide solution (15 μL); absorbance 405 nm every 30 s, initial slope vs uninhibited; triplicate
Method: A stock solution of porcine pancreatic elastase (Elastase-high purity; EPC, EC134) was prepared at a concentration of 75 μg/mL in Tris-HCl (pH 8.0). Aliquots of test compounds (1 μL, DMSO) were preincubated with 79 μL Tris-HCl (pH 8.0) and 5 μL elastase stock for 15 min at room temperature in a microtiter plate. After this time, 15 μL substrate solution was added (2 mM N-succinyl-Ala-Ala-Ala-p-nitroanilide in Tris-HCl, pH 8.0) to each well, and the reaction was followed by measuring the absorbance at 405 nm every 30 s. Enzyme activity was determined by calculating the initial slope of each progress curve, expressed as a percentage of the slope of the uninhibited reaction.

T1 sequence (P00772 27-266): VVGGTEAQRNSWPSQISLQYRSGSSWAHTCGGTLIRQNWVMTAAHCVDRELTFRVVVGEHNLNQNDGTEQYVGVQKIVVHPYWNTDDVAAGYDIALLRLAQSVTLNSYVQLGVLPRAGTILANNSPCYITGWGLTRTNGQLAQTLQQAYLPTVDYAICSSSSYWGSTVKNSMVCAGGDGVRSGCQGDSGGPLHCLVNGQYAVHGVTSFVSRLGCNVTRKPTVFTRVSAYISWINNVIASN

C/C=C1\NC(=O)[C@@H](NC(=O)[C@@H](NC(=O)[C@H](C)NC(=O)CCC)C(C)C)[C@@H](C)OC(=O)[C@H](C(C)C)NC(=O)[C@H](Cc2ccc(O)cc2)N(C)C(=O)[C@H](Cc2ccccc2)N2C(=O)[C@H](CC[C@H]2O)NC1=O [Compound 2, Lyngbyastatin 9] gave an IC50 of 210 ± 10 nM.

C/C=C1\NC(=O)[C@@H](NC(=O)[C@@H](NC(=O)[C@H](C)NC(C)=O)C(C)C)[C@@H](C)OC(=O)[C@H](C(C)C)NC(=O)[C@H](Cc2ccc(O)cc2)N(C)C(=O)[C@H](Cc2ccccc2)N2C(=O)[C@H](CC[C@H]2O)NC1=O [Compound 1, Lyngbyastatin 8] gave an IC50 of 123 ± 2 nM.

C/C=C1\NC(=O)[C@@H](NC(=O)[C@@H](NC(=O)[C@H](C)NC(=O)CCC)C(C)C)[C@@H](C)OC(=O)[C@H](C(C)C)NC(=O)[C@H](Cc2ccc(O)c(Br)c2)N(C)C(=O)[C@H](Cc2ccccc2)N2C(=O)[C@H](CC[C@H]2O)NC1=O [Compound 3, Lyngbyastatin 10] gave an IC50 of 120 ± 16 nM.
